Results reported in patent US20060234986A1, “Use of TAFI inhibitors for enhanced myocardial reperfusion and facilitated PCI” (Schering Aktiengesellschaft, priority 2005, published 2006).

Legend:
Type in all cases: in vivo
[1] = test system: bleeding time after sectioning of the cuticle; experiment: Dog cuticle bleeding time
Text: (§1) A dog femoral artery thrombosis model was used to test that TAFI inhibition by i.v. administration of a potent and selective TAFI inhibitor would potentiate fibrinolysis. A stable, occlusive thrombus was formed using FeCl2 to chemically injure the arterial wall. Thrombotic occlusion and reperfusion (effective fibrinolysis) were monitored by measuring blood flow with a Doppler flow probe. Since no spontaneous reperfusion is observed in this model, a sub-maximal dose of tPA was used to enhance baseline activity. […] Bleeding propensity was measured by determining the time required for bleeding to stop following a series of standardized wounds (sectioning of the cuticle).
(§2) Male Beagle dogs (8-12 kg) were anesthetized with isoflurane (2-3%). […] Femoral artery blood flow, systemic blood pressure, heart rate and breathing patterns were monitored and recorded on a data acquisition system during the experiment. […] The time for the cut to cease bleeding was recorded as the primary bleeding time.
(§3) After stabilization of hemodynamic parameters, a blood sample was taken for drug levels. […] Bleeding time was determined and a blood sample was collected 20 min after the start of the tPA infusion. […]

[2] = test system: LPS-induced impairment of fibrinolysis (lung fibrin deposition); experiment: Rat lung fibrin deposition model (batroxobin, 125I-fibrinogen, LPS)
Protocol: This model was used to test the hypothesis that inhibition of endogenous TAFI can enhance fibrinolysis. Batroxobin, a thrombin-like enzyme, was used to hydrolyze fibrinogen to fibrin, which deposits in tissues, especially in the lungs. Following tissue deposition, fibrin is lysed into fibrin degradation products, which return to the blood. In this study, ^125I-labeled fibrinogen was given and tissue accumulation of fibrin and the subsequent fibrinolysis were assessed by the mobilization of ^125I from blood to tissue (generation of ^125I-fibrin from ^125I-fibrinogen) and back to blood (generation of ^125I-fibrin degradation products from ^125I-fibrin) after batroxobin injection. LPS has been known to stinulate the release of numerous endogenous factors that can inhibit fibrinolytic activity, including TAFI, thus preventing spontaneous fibrinolysis in the lungs.
Male Sprague-Dawley rates (300-350g) were randomly divided into three groups: • (1) untreated (controls) • (2) treated with LPS • (3) treated with LPS+TAFI inhibitor. Animals assigned to receive LPS (0.5 mg/kg, iv) were injected 3 hours before batroxobin injection. Twenty minutes before batroxobin injection, all animals were anesthetized with pentobarbital (65 mg/kg, ip), and saline-filled catheters were placed into the right carotid artery and left jugular vein for blood collection and drug injection, respectively. ^125I-fibrinogen (1 mCi) was administered to all animals 10 min. prior to batroxobin injection and animals assigned to receive the TAFI inhibitor (10 mg/kg) were injected 5 min. before the batroxobin. The rats were sacrificed at either 5 or 30 min after batroxobin injection.

[3] = test system: dog femoral artery occlusive thrombus; experiment: Dog femoral artery thrombosis model (FeCl2 injury), reperfusion and time to occlusion; conditions: TAFI inhibitor pre-treatment (10 min before FeCl2), n=6, p=ns vs control group
Text: as §1, §2, §3

| Compound | Bleeding time ([1]; dog, in vivo) | CPM in the lungs versus control rats ([2]; LPS + TAFI inhibitor 10 mg/kg, 30 min after batroxobin) | Blood CPM and 125I in the lungs ([2]; LPS + TAFI inhibitor 10 mg/kg, 30 min after batroxobin, versus LPS-treated rats) | Radioactive readings in blood or lungs ([2]; TAFI inhibitor 10 mg/kg in LPS-treated rats, 5 min after batroxobin, in relation to LPS-treated rats) | Bleeding time ([1]; TAFI inhibitor 10 mg/kg pre-thrombus + tPA 10 μg/kg/min, versus tPA alone) | Time to occlusion induced by FeCl2 [3] |
| --- | --- | --- | --- | --- | --- | --- |
| tPA: tissue-type plasminogen activator, a plasminogen activator used as thrombolytic agent | prolonged dose-dependently | – | – | – | – | – |
| CC(C)[C@H](NS(=O)(=O)CCCc1ccccc1)P(=O)(O)C[C@H](C(=O)O)c1cccc(CN)c1.O=C(O)C(F)(F)F [TAFI inhibitor, (2S)-2-(3-(amino)methylphenyl)-3-(((1R)-1-(3-phenylpropylsulfonyl)amino-2-methylpropyl)(hydroxy)phosphinoyl)propanoic acid trifluoroacetate] | – | not different | prevented LPS-induced recovery of blood CPM and resulted in ^125I retention in the lungs | did not change | without further prolongation of bleeding time | 31.1 ± 3.9 min |
